Laboratory results from patent US20250154099A1, “PREPARATION METHOD OF 2-PHENYLINDOLE DERIVATIVES AND APPLICATION THEREOF” (Shihezi University, priority 2022, published 2025).
≈ marks a conversion by molar mass, not a printed value. Like-named read-outs stand apart in the source and are kept apart here.

How the values were obtained:
Format in all cases: cell-based
[1] = system: Cryptococcus neoformans BNCC225501; test: MIC by microdilution method, sensitive Cryptococcus neoformans; settings: for MIC: Cryptococcus neoformans, read-out: MIC Cryptococcus neoformans
Excerpt: (§1) Used bacteria: including drug-resistant bacteria and sensitive bacteria: the used sensitive strains include Cryptococcus neoformans BNCC225501, Candida albicans BNCC186382, Aspergillus fumigatus Fresenius BNCC338385, Escherichia coli BNCC336902, Staphylococcus aureus BNCC186335 and Pseudomonas aeruginosa Migula BNCC337940, and the used drug-resistant Candida albicans is clinically isolated azole multi-drug resistant Candida albicans (CA10) donated by Qianfoshan Hospital in Shandong Province. The strains are stored in normal saline containing 20% glycerol at −80° C. for a long time. Before operation, the strains are lined and transferred to a YPD solid plate, and subjected to static culture at 30° C. for 24 h; single colonies are selected and transferred to a YPD liquid medium, and cultured at 200 rpm at 30° C. overnight; and the overnight cultured bacterial solution is inoculated into a new YPD liquid medium at a ratio of about 1:100, and subjected to shaking culture at 200 rpm at 30° C. for 4 h so that Candida albicans is in a logarithmic phase.
(§2) Culture medium: the culture medium used by the microdilution method is RPMI-1640 culture medium (Gibco).
(§3) 1.2 Operation and results of detection of minimum inhibitory concentration (MIC) of the compounds and the azole drugs by the microdilution method: the MIC of the synthesized compound and the azole drug fluconazole for the standard strains is detected by the microdilution method according to fungal sensitivity detection method (M27-A3) established by the Clinical and Laboratory Standards Institute (CLSI). Specific steps are as follows: the prepared strain concentration is adjusted to 0.5-2.5×10^3 CFU/mL by using RPMI-1640 medium. 200 μL of bacterial solution containing the highest concentration of the drug to be detected is added into the first well of a 96-well plate, and 100 μL of blank bacterial solution without drug is added into each of the other wells; the bacterial solution is diluted to a series of concentration gradients by a double gradient dilution method; the well plate is subjected to static culture at constant temperature of 35° C. for 24 h; after the absorbance (OD) of each concentration gradient at 570 nm is detected by a microplate reader and the absorbance of a blank medium is subtracted, the growth rate=dosing hole value/control hole value ×100%, the inhibition rate=1−growth rate, and the minimum concentration with the inhibition rate greater than 80% is the minimum inhibitory concentration (MIC) value.

[2] = system: Drug-resistant Candida albicans CA10; test: MIC by microdilution method, drug-resistant Candida albicans CA10; settings: clinically isolated azole multi-drug resistant strain CA10; 24 h
Excerpt: as §1, §2, §3

[3] = system: Staphylococcus aureus BNCC186335; test: MIC by microdilution method, sensitive Staphylococcus aureus; settings: read-out: MIC Staphylococcus aureus
Excerpt: as §1, §2, §3

[4] = system: Pseudomonas aeruginosa Migula BNCC337940; test: MIC by microdilution method, sensitive Pseudomonas aeruginosa Migula; settings: 24 h, read-out: MIC Pseudomonas aeruginosa Migula
Excerpt: as §1, §2, §3

[5] = system: Aspergillus fumigatus Fresenius BNCC338385; test: MIC by microdilution method, sensitive Aspergillus fumigatus Fresenius; settings: 24 h; for MIC: Aspergillus fumigatus, read-out: MIC Aspergillus fumigatus Fresenius
Excerpt: as §1, §2, §3

[6] = system: Escherichia coli BNCC336902; test: MIC by microdilution method, sensitive Escherichia coli; settings: read-out: MIC Escherichia coli
Excerpt: as §1, §2, §3

[7] = system: Candida albicans BNCC186382; test: MIC by microdilution method, sensitive Candida albicans; settings: for MIC: Candida albicans, read-out: MIC Candida albicans
Excerpt: as §1, §2, §3

[8] = BNCC225501, sensitive strain, 35° C., 24 h, minimum concentration with inhibition rate greater than 80%
[9] = BNCC186335, sensitive strain, 35° C., 24 h, minimum concentration with inhibition rate greater than 80%
[10] = sensitive strain, 35° C., minimum concentration with inhibition rate greater than 80%
[11] = BNCC336902, sensitive strain, 35° C., 24 h, minimum concentration with inhibition rate greater than 80%
[12] = BNCC186382, sensitive strain, 35° C., 24 h, minimum concentration with inhibition rate greater than 80%
[13] = sensitive strain, 35° C., 24 h, minimum concentration with inhibition rate greater than 80%

MIC [1, 8]	MIC80 Drug-resistant Candida albicans CA10 [2]	MIC [3, 9]	MIC [4, 10]	MIC [5, 10]	MIC [6, 11]	MIC [7, 12]	MIC Cryptococcus neoformans [1, 13]	MIC Aspergillus fumigatus Fresenius [5, 10]	MIC Candida albicans [7, 13]	SMILES	MIC ([1]; BNCC225501, 24 h)	MIC ([3]; BNCC186335, 24 h)	MIC [4]	MIC [5]	MIC ([6]; BNCC336902, 24 h)	MIC ([7]; BNCC186382, 24 h)
8 µg/mL (≈ 37.9 µM)	> 256 µg/mL	16 µg/mL (≈ 75.7 µM)	256 µg/mL (≈ 1210 µM)	256 µg/mL (≈ 1210 µM)	32 µg/mL (≈ 151 µM)	256 µg/mL (≈ 1210 µM)	–	–	–	Fc1ccc2[nH]c(-c3ccccc3)cc2c1 [Compound 22]	–	–	–	–	–	–
256 µg/mL (≈ 1150 µM)	> 256 µg/mL	256 µg/mL (≈ 1150 µM)	256 µg/mL (≈ 1150 µM)	256 µg/mL (≈ 1150 µM)	256 µg/mL (≈ 1150 µM)	256 µg/mL (≈ 1150 µM)	–	–	–	COc1ccc2[nH]c(-c3ccccc3)cc2c1 [Compound 18]	–	–	–	–	–	–
256 µg/mL (≈ 1020 µM)	> 256 µg/mL	32 µg/mL (≈ 127 µM)	8 µg/mL (≈ 31.8 µM)	256 µg/mL (≈ 1020 µM)	256 µg/mL (≈ 1020 µM)	32 µg/mL (≈ 127 µM)	–	–	–	COC(=O)c1ccc2cc(-c3ccccc3)[nH]c2c1 [Compound 20]	–	–	–	–	–	–
256 µg/mL (≈ 1240 µM)	> 256 µg/mL	256 µg/mL (≈ 1240 µM)	256 µg/mL (≈ 1240 µM)	256 µg/mL (≈ 1240 µM)	16 µg/mL (≈ 77.2 µM)	256 µg/mL (≈ 1240 µM)	–	–	–	Cc1ccc2[nH]c(-c3ccccc3)cc2c1 [Compound 16]	–	–	–	–	–	–
–	–	–	–	–	–	–	64 µg/mL (≈ 69.3 µM)	16 µg/mL (≈ 17.3 µM)	2 µg/mL (≈ 2.16 µM)	C[C@@H]1[C@H](O)[C@@H](C)/C=C/C=C/C=C/C=C/C=C/C=C/C=C/[C@H](O[C@@H]2O[C@H](C)[C@@H](O)[C@H](N)[C@@H]2O)C[C@@H]2O[C@](O)(C[C@@H](O)C[C@@H](O)[C@H](O)CC[C@@H](O)C[C@@H](O)CC(=O)O[C@H]1C)C[C@H](O)[C@H]2C(=O)O [Amphotericin B, amphotericin B, reference compound]	–	–	–	–	–	–
256 µg/mL (≈ 1150 µM)	> 256 µg/mL	256 µg/mL (≈ 1150 µM)	64 µg/mL (≈ 287 µM)	256 µg/mL (≈ 1150 µM)	256 µg/mL (≈ 1150 µM)	256 µg/mL (≈ 1150 µM)	–	–	–	COc1ccc2cc(-c3ccccc3)[nH]c2c1 [Compound 3]	–	–	–	–	–	–

SMILES	MIC [1, 8]	MIC80 Drug-resistant Candida albicans CA10 [2]	MIC [3, 9]	MIC [4, 10]	MIC [5, 10]	MIC [6, 11]	MIC [7, 12]	MIC Cryptococcus neoformans [1, 13]	MIC Aspergillus fumigatus Fresenius [5, 10]	MIC Candida albicans [7, 13]	MIC ([1]; BNCC225501, 24 h)	MIC ([3]; BNCC186335, 24 h)	MIC [4]	MIC [5]	MIC ([6]; BNCC336902, 24 h)	MIC ([7]; BNCC186382, 24 h)
c1ccc2[nH]c(-c3ccc4c(c3)OCO4)cc2c1 [Compound 15]	–	> 256 µg/mL	–	–	–	–	–	–	–	–	256 µg/mL (≈ 1080 µM)	256 µg/mL (≈ 1080 µM)	16 µg/mL (≈ 67.4 µM)	256 µg/mL (≈ 1080 µM)	256 µg/mL (≈ 1080 µM)	256 µg/mL (≈ 1080 µM)
Clc1ccc(-c2cc3ccccc3[nH]2)cc1 [Compound 11]	–	> 256 µg/mL	–	–	–	–	–	–	–	–	> 256 µg/mL	> 256 µg/mL	> 256 µg/mL	> 256 µg/mL	> 256 µg/mL	> 256 µg/mL
O=[N+]([O-])c1cccc(-c2cc3ccccc3[nH]2)c1 [Compound 12]	–	> 256 µg/mL	–	–	–	–	–	–	–	–	8 µg/mL (≈ 33.6 µM)	256 µg/mL (≈ 1070 µM)	2 µg/mL (≈ 8.39 µM)	4 µg/mL (≈ 16.8 µM)	8 µg/mL (≈ 33.6 µM)	4 µg/mL (≈ 16.8 µM)
Cc1cccc(-c2cc3ccccc3[nH]2)c1 [Compound 7]	–	> 256 µg/mL	–	–	–	–	–	–	–	–	256 µg/mL (≈ 1240 µM)	8 µg/mL (≈ 38.6 µM)	256 µg/mL (≈ 1240 µM)	256 µg/mL (≈ 1240 µM)	8 µg/mL (≈ 38.6 µM)	256 µg/mL (≈ 1240 µM)
